According to ChEMBL document CHEMBL1158509, “Novel selective thiazoleacetic acids as CRTH2 antagonists developed from in silico derived hits. Part 2” (Bioorg Med Chem Lett, 2010):
≈ marks a conversion by molar mass, not a printed value.

How the values were obtained:
[1] = target: T1, Prostaglandin D2 receptor 2 (Homo sapiens, UniProt Q9Y5Y4); assay: Antagonist activity at human CRTH2 receptor expressed in […] cells assessed as inhibition of beta arrestin translocation by bioluminescence resonance energy transfer assay; assay type: functional, cell-based
T1 sequence (Q9Y5Y4 whole entry): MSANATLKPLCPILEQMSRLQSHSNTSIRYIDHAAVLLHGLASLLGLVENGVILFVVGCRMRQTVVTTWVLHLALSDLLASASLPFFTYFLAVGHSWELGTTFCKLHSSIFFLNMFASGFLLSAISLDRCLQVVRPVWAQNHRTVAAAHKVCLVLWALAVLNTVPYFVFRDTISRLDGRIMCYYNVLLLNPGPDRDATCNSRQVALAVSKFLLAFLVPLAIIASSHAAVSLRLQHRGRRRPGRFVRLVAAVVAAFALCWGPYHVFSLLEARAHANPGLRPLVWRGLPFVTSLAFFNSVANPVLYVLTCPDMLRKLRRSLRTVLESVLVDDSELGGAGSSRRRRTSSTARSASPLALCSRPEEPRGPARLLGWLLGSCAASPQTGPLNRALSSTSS

[2] = target: T1, Prostaglandin D2 receptor 2; assay: Displacement of[3H]PGD2 from human CRTH2 receptor expressed in african green monkey COS7 cells; assay type: cell-based, COS-7
[3] = target: T2, Prostaglandin D2 receptor 2 (Homo sapiens) (UniProt Q9Y5Y4); assay: Antagonist activity at human CRTH2 receptor expressed in […] cells assessed as inhibition of beta arrestin translocation by bioluminescence resonance energy transfer assay relative to control; assay type: functional, cell-based
T2 sequence (whole entry): T1 sequence (Q9Y5Y4 whole entry)

[4] = target: T1, Prostaglandin D2 receptor 2; assay: Displacement of[3H]PGD2 from human CRTH2 receptor expressed in […] cells; assay type: cell-based
[5] = Aqueous solubility at pH 1; assay type: physicochemical
[6] = Octanol-water distribution coefficient, log D at pH 7.4; assay type: physicochemical
[7] = Metabolic stability in rat liver S9 fraction assessed as compound remaining; assay type: ADME, subcellular
[8] = Metabolic stability in human liver S9 fraction assessed as compound remaining; assay type: ADME, subcellular
CYP2D6 = CYP2D6 (Homo sapiens, UniProt P10635); assay: Inhibition of CYP2D6 at 1 uM; assay type: ADME
CYP3A4 = CYP3A4 (Homo sapiens, UniProt P08684); assay: Inhibition of CYP3A4 at 1 uM; assay type: ADME
[9] = Half life in rat; assay type: ADME, organism-based; conditions: in vivo
[10] = Clearance in rat; assay type: ADME, organism-based; conditions: in vivo
[11] = Bioavailability in rat; assay type: ADME, organism-based; conditions: in vivo
[12] = Aqueous solubility at pH 7.4; assay type: physicochemical
[13] = Permeability apical to basolateral side in human Caco-2 cells; assay type: ADME, cell-based; conditions: read-out: permeability
[14] = target: Phospholipase A2 (Homo sapiens) (UniProt P04054); assay: Inhibition of PLA2 at 10 uM
[15] = target: Prostaglandin G/H synthase 1 (Homo sapiens) (UniProt P23219); assay: Inhibition of COX1 at 10 uM
[16] = target: T3, Prostaglandin G/H synthase 2 (Homo sapiens) (UniProt P35354); assay: Inhibition of COX2 at 10 uM
T3 sequence (whole entry): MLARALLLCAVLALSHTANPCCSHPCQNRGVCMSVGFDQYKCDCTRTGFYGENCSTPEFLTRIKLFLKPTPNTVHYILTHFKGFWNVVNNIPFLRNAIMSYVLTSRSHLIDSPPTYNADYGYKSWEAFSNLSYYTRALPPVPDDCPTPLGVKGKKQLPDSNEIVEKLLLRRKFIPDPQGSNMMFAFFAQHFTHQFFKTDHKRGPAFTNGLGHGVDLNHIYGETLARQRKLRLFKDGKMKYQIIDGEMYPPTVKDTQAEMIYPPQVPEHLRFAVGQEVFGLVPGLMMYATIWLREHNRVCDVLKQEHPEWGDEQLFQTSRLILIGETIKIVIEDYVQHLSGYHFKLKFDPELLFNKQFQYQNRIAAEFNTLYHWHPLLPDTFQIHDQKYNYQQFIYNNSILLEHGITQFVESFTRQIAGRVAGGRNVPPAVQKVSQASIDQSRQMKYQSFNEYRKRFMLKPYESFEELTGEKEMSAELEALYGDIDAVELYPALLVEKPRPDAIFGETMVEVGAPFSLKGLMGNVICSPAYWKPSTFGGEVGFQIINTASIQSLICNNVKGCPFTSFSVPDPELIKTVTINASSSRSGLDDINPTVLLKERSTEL

[17] = target: T4, Polyunsaturated fatty acid lipoxygenase ALOX12 (Homo sapiens) (UniProt P18054); assay: Inhibition of 12-lipoxygenase at 10 uM
T4 sequence (whole entry): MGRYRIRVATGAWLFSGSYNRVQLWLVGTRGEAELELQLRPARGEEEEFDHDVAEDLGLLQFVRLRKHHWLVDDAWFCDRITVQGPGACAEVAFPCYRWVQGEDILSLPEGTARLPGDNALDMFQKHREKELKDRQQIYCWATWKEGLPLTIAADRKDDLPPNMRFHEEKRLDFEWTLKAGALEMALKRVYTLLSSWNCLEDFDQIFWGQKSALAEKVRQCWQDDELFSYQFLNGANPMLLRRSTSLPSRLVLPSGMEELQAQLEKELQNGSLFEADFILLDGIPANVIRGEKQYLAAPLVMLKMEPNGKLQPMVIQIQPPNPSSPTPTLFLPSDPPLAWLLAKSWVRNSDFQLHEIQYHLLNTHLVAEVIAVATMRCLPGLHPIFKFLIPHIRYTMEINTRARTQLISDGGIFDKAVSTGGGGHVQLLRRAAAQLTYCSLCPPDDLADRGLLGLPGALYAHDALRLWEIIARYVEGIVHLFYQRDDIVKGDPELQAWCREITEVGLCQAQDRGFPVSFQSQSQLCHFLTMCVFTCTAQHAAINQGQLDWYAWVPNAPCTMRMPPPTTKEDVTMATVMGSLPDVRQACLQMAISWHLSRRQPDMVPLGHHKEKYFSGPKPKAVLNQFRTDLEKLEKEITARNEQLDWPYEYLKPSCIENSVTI

[18] = target: T5, Polyunsaturated fatty acid lipoxygenase ALOX15 (Homo sapiens) (UniProt P16050); assay: Inhibition of 15-lipoxygenase at 10 uM
T5 sequence (whole entry): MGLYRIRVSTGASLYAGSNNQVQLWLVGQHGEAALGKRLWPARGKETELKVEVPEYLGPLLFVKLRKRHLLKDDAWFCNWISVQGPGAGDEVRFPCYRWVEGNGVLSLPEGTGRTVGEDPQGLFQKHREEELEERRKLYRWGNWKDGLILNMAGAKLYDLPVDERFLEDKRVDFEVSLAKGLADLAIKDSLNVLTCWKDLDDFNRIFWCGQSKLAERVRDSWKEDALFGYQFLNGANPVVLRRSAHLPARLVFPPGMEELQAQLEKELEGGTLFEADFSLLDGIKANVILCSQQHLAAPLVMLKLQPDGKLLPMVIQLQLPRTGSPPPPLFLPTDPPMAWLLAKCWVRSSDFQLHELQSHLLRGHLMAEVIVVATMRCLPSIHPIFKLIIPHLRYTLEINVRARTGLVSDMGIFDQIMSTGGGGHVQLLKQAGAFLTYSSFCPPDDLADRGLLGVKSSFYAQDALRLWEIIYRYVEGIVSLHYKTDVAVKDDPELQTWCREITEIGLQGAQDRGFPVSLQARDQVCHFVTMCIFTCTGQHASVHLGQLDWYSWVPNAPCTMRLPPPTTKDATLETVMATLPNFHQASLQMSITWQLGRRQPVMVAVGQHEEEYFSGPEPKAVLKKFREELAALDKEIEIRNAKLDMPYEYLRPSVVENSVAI

[19] = target: T6, Prostaglandin D2 receptor (Homo sapiens, UniProt Q13258); assay: Inhibition of DP1 receptor
T6 sequence (Q13258 whole entry): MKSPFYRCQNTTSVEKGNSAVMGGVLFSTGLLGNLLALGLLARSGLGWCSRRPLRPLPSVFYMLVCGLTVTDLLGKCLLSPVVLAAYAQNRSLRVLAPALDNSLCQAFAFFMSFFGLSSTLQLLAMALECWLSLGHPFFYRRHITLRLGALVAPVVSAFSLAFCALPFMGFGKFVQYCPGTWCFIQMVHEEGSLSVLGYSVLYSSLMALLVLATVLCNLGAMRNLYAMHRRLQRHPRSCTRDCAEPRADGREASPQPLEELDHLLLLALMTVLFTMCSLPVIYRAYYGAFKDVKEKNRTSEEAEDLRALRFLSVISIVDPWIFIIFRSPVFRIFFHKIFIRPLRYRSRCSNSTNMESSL

Sequence of CYP3A4 (P08684 whole entry): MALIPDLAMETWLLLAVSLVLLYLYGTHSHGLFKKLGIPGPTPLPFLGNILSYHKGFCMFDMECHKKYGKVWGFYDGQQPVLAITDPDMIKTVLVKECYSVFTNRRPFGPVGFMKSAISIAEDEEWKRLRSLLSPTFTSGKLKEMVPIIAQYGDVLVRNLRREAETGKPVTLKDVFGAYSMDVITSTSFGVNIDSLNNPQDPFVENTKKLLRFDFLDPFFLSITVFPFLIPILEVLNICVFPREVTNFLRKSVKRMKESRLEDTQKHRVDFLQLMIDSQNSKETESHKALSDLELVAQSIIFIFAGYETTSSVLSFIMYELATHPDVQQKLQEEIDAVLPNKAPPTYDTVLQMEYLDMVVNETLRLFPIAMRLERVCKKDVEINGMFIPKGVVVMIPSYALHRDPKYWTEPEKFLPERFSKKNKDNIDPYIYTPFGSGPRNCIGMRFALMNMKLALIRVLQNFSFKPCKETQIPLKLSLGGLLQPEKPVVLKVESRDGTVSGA
Sequence of CYP2D6 (P10635 whole entry): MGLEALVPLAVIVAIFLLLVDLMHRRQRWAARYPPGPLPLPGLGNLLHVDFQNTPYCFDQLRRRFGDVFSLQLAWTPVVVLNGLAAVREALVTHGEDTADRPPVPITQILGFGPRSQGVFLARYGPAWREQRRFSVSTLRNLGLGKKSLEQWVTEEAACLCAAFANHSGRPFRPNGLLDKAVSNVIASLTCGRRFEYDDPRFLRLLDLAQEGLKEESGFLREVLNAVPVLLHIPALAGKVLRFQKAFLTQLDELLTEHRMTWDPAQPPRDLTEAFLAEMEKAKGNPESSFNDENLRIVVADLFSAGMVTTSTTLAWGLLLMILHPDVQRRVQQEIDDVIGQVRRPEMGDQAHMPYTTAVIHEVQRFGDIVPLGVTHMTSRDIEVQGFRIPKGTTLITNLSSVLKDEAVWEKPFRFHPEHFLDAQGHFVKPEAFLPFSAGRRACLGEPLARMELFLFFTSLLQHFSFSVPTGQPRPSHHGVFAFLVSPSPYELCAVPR
Sequence of Prostaglandin G/H synthase 1 (Homo sapiens) (P23219 whole entry): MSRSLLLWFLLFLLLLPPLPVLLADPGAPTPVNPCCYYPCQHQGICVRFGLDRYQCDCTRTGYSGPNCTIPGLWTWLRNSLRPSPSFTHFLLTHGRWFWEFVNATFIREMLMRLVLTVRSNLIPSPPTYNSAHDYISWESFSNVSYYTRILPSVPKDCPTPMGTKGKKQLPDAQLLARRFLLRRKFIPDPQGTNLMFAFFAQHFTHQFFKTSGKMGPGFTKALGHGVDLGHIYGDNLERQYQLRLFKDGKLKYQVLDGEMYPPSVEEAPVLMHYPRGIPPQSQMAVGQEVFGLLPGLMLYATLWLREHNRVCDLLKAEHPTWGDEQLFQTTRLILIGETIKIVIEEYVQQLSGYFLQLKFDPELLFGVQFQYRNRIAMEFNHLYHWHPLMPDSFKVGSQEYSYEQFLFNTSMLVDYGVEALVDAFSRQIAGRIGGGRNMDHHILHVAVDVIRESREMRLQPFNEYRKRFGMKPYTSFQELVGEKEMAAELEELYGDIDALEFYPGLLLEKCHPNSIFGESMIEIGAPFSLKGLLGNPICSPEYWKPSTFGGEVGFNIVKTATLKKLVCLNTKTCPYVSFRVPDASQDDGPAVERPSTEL
Sequence of Phospholipase A2 (Homo sapiens) (P04054 23-148 limits assumed): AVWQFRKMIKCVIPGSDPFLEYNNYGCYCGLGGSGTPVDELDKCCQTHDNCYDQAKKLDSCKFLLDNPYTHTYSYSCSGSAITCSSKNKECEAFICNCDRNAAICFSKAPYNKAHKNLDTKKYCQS

| IC50 [1] [µM] | Efficacy [3] [%] | IC50 [4] [µM] | Compound | also measured |
| --- | --- | --- | --- | --- |
| 41 | 50 | – | Cc1nc(-c2ccc(Cl)cc2)c(CC(=O)O)s1 | IC50 [2]: 5.5 µM |
| 0.031 | 80 | 0.0036 | COc1ccc(C(c2ccccc2)c2nc(-c3ccc(F)cc3)c(CC(=O)O)s2)cc1 (stereo unspecified) | solubility [5]: 40 µM (≈ 17.3 µg/mL); logD [6]: 3; Stability [7]: 0%; Stability [8]: 3.3%; inhibition at 1 µM (CYP2D6): 5.8%; inhibition at 1 µM (CYP3A4): 4.4%; half-life [9]: 8.5 h; clearance [10]: 4.2 L/h/kg; bioavailability [11]: 81% |
| 0.06 | 50 | 0.014 | O=C(O)Cc1sc(C(c2ccccc2)c2ccccc2)nc1-c1ccc(Cl)cc1 | solubility [12]: 154 µM (≈ 64.7 µg/mL); solubility [5]: 197 µM (≈ 82.7 µg/mL); Papp A→B [13]: 26 nm/s; Stability [7]: 2.1%; Stability [8]: 98.5%; inhibition at 1 µM (CYP2D6): 97.8%; inhibition at 1 µM (CYP3A4): 69%; half-life [9]: 24 h; clearance [10]: 1.62 L/h/kg; bioavailability [11]: 62%; inhibition [14]: 20%; inhibition [15]: 20%; inhibition [16]: 20%; inhibition [17]: 20%; inhibition [18]: 20%; IC50 [19]: 100 µM |
| 3.8 | 50 | – | O=C(O)Cc1sc(-c2ccco2)nc1-c1ccc(Cl)cc1 | IC50 [2]: 0.55 µM |
| 0.043 | 80 | 0.0041 | O=C(O)Cc1sc(C(c2ccccc2)c2ccccc2)nc1-c1ccc(F)c(F)c1 | – |
| 0.51 | 80 | 0.068 | O=C(O)Cc1sc(C(c2ccc(F)cc2)c2ccc(F)cc2)nc1-c1cccnc1 | – |
| 0.031 | 80 | 0.0039 | COc1ccc(C(c2ccc(OC)cc2)c2nc(-c3ccc(F)cc3)c(CC(=O)O)s2)cc1 | – |
| > 100 | 80 | 0.36 | CC(=O)N1CCN(c2cc(-c3nc(C(c4ccc(F)cc4)c4ccc(F)cc4)sc3CC(=O)O)ccn2)CC1 | – |
| > 100 | 50 | > 100 | Nc1nc(-c2ccc(Cl)cc2)c(CC(=O)O)s1 | – |
| 0.39 | 50 | 0.65 | O=C(O)Cc1sc(NCCc2ccccc2)nc1-c1ccc(Cl)cc1 | – |
| 0.14 | 80 | 0.018 | O=C(O)Cc1sc(C(c2ccc(F)cc2)c2ccc(F)cc2)nc1-c1ccco1 | – |
| 0.73 | 30 | 1.5 | O=C(O)Cc1sc(CS(=O)(=O)c2ccc(Cl)cc2)nc1-c1ccc(Cl)cc1 | – |
| 0.87 | 50 | 0.52 | O=C(O)Cc1sc(NC(=O)c2ccccc2)nc1-c1ccc(Cl)cc1 | – |
| 0.064 | 80 | 0.0048 | Nc1cc(-c2nc(C(c3ccc(F)cc3)c3ccc(F)cc3)sc2CC(=O)O)ccn1 | – |
| > 100 | 80 | 1.5 | NS(=O)(=O)c1ccc(-c2nc(C(c3ccc(F)cc3)c3ccc(F)cc3)sc2CC(=O)O)cc1 | – |
| > 100 | 80 | 0.88 | Cc1cc(-c2nc(C(c3ccc(F)cc3)c3ccc(F)cc3)sc2CC(=O)O)cnc1N | – |
| 0.04 | 80 | 0.0053 | O=C(O)Cc1sc(C(c2ccc(F)cc2)c2ccc(F)cc2)nc1-c1ccncc1 | – |
